Structures are written as SMILES. In brackets after ≈: the same amount, converted by molar mass. Peptide text beside a SMILES is read from it.

Assay [1] relates to Bacillus subtilis CMCC 63501. It is filed as cell-based. Particulars: CMCC 63501, 18 h. The method, then:
(§1) The peptide antibacterial activity was determined against both gram-positive and gram-negative bacteria strains, including Escherichia coli ATCC 25922, Escherichia coli UB1005, Salmonella enterica serovar typhimurium C77-31, Staphylococcus aureus ATCC 29213, Staphylococcus aureus ATCC 25923, Bacillus subtilis CMCC 63501, and Staphylococcus epidermidis ATCC 12228. Clinically isolated Escherichia coli EC183 was provided by the 4th Affiliated Hospital of Harbin Medical University. MIC of the peptides was measured using a modified version of the National Committee for Clinical Laboratory Standards (NCCLS) broth microdilution method as described previously. The bacterial strains were inoculated and grown to mid-log phase in fresh Mueller-Hinton broth (MHB) at 37 °C. Bacterial inoculum suspensions were prepared at a final concentration of approximately 1 × 10^5 CFU/ml. Peptides were 2-fold serially diluted to make different concentrations, from 0.5 to 256 μM. Equal volumes of inoculum suspensions were then added to each well of a sterile 96-well plate with different concentrations of peptides, and the plate was incubated for 18 h at 37 °C. Broth with or without bacteria was employed as the positive control or the negative control, respectively. MIC was defined as the lowest concentration of peptides that prevented visible turbidity by visual inspection. […] After overnight incubation at 37 °C, MBC was defined as the lowest concentration of peptides that killed at least 99.9% of the initial inoculums. Experiments were performed in triplicate with three biological replicates.

The test system of assay [2] is Clinically isolated Escherichia coli EC183. It is filed as cell-based. Particulars: Clinically isolated EC183, 18 h. As for the experimental part: as §1
Assay [3] deals with Escherichia coli ATCC 25922. It is filed as cell-based. As to conditions: ATCC 25922, 18 h. As for the experimental part:
as §1

A further assay concerns Escherichia coli UB1005. It is filed as cell-based. As to conditions: UB1005, 18 h. As for the experimental part: as §1
Assay [4] concerns Salmonella enterica serovar typhimurium C77-31. It is filed as cell-based. Particulars: three independent experiments. As for the experimental part: as §1
The test system of assay [5] is Staphylococcus aureus ATCC 25923. It is filed as cell-based. As to conditions: ATCC 25923, 18 h. As for the experimental part: as §1
In assay [6] the test system is Staphylococcus aureus ATCC 29213. It is filed as cell-based. As to conditions: ATCC 29213, 18 h. The method, then: as §1
Assay [7] relates to Staphylococcus epidermidis ATCC 12228. It is filed as cell-based. Particulars: ATCC 12228, 18 h. The method, then: as §1
Assay [8] deals with Candida albicans CGMCC 2.2086. In words: microbe, parasite or virus in culture. It is filed as cell-based. As to conditions: CGMCC 2.2086, 48 h. An excerpt:
(§2) The antifungal activities were monitored in RPMI-1640 broth medium by a 2-fold microdilution assay according to the Clinical and Laboratory Standards Institute (CLSI) methods. The Candida albicans CGMCC 2.2086, Candida tropicalis CGMCC 2.1975, and Candida krusei CGMCC 2.1857 fungal strains were purchased from the China General Microbiological Culture Collection Center (CGMCC, Beijing, China). Clinically isolated Candida albicans CA2761 was provided by the 4th Affiliated Hospital of Harbin Medical University. Briefly, fungal strains were cultured on YPD agar plates (1% peptone, 0.5% yeast extract, 1% glucose and 2% agar) at 28 °C to prepare Candida suspensions with a turbidity of a 0.5 McFarland standard. A total of 50 μl inoculum cell suspension diluted in RPMI-1640 broth medium was added to an equal volume of peptide solution to achieve a final peptide concentrations ranging from 0.25 μM to 128 μM in a 96-well plate. Pure broth alone or with inoculum suspensions was used as the negative control or the positive control, respectively. The plate was incubated at 28 °C for 48 h. MIC was considered the lowest concentration at which no fungal growth was visually observed under experimental conditions. […] After 48 h incubation at 28 °C, MFC was defined as the lowest concentration of peptides that killed at least 99.9% of the initial inoculums. Experiments were performed in triplicate with three biological replicates.

Assay [9] has as its system Candida krusei CGMCC 2.1857. Description: microbe, parasite or virus in culture. It is filed as cell-based. As to conditions: CGMCC 2.1857, 48 h.
Source text: as §2

Assay [10] concerns Candida tropicalis CGMCC 2.1975. Description: microbe, parasite or virus in culture. It is filed as cell-based. As to conditions: CGMCC 2.1975, 48 h.
Source text: as §2

In assay [11] the test system is C. albicans CA276 (clinical isolate). In words: microbe, parasite or virus in culture. It is filed as cell-based, Candida albicans. Particulars: CA276 (clinical isolate, 48 h).
Source text: as §2

As a reminder, the MFC is the lowest tested concentration that kills the fungus rather than only halting it. For the molecule `CC[C@H](C)[C@H](NC(=O)[C@H](Cc1c[nH]c2ccccc12)NC(=O)[C@H](CCCCN)NC(=O)[C@H](CC(C)C)NC(=O)[C@@H](NC(=O)[C@H](CCCCN)NC(=O)CNC(=O)[C@@H](NC(=O)[C@H](CCCCN)NC(=O)[C@H](CCCCN)NC(=O)[C@H](CC(C)C)NC(=O)[C@H](CCCNC(=N)N)NC(=O)[C@H](CCCCN)NC(=O)[C@H](CCCNC(=N)N)NC(=O)[C@@H](NC(=O)[C@H](CCCCN)NC(=O)[C@H](CCCCN)NC(=O)[C@H](CCCNC(=N)N)NC(=O)[C@H](CC(C)C)NC(=O)[C@H](CCCNC(=N)N)NC(=O)[C@@H](N)CCCNC(=N)N)[C@@H](C)O)[C@@H](C)CC)C(C)C)C(N)=O` [RI21] (H-RRLRKKTRKRLKKIGKVLKWI-NH2), in assay [1], the “MBC B. subtilis 63501” value came out at 4 µM (≈ 10.8 µg/mL) and the “MIC B. subtilis 63501” value came out at 1 µM (≈ 2.7 µg/mL). In assay [2], the “MBC E. coli EC183” value came out at 2 µM (≈ 5.41 µg/mL) and the “MIC E. coli EC183” value is 1 µM (≈ 2.7 µg/mL). In assay [3], the “MBC E. coli 25922” value came to 8 µM (≈ 21.6 µg/mL) and the “MIC E. coli 25922” value is 2 µM (≈ 5.41 µg/mL). In the assay on Escherichia coli UB1005, this molecule gave an MBC E. coli 1005 of 2 µM (≈ 5.41 µg/mL) and an MIC E. coli 1005 of 2 µM (≈ 5.41 µg/mL). For the same molecule, the “MIC S. typhi C77-31” value in [4] (broth microdilution, MHB, ~1 × 10^5 CFU/ml, 18 h at 37 °C, visual) turned out to be 1 µM (≈ 2.7 µg/mL). The “MBC S. typhi C77-31” value in [4] (lowest concentration killing at least 99.9% of initial inoculum) turned out to be 2 µM (≈ 5.41 µg/mL). For the same molecule, in assay [5], the MBC S. aureus 25923 is 4 µM (≈ 10.8 µg/mL) and the MIC S. aureus 25923 came to 4 µM (≈ 10.8 µg/mL). In assay [6], the MBC S. aureus 29213 is 4 µM (≈ 10.8 µg/mL) and the MIC S. aureus 29213 worked out at 4 µM (≈ 10.8 µg/mL). In [7], the “MBC S. epidermidis 12228” value was 8 µM (≈ 21.6 µg/mL) and the “MIC S. epidermidis 12228” value came out at 4 µM (≈ 10.8 µg/mL). In addition, the MFC in assay [8] (read-out: MFC C. albicans 2.2086) is 16 µM (≈ 43.3 µg/mL). In addition, the MIC in assay [8] (read-out: MIC C. albicans 2.2086) came to 8 µM (≈ 21.6 µg/mL). Further, the MFC in assay [9] (read-out: MFC C. krusei 2.1857) was 4 µM (≈ 10.8 µg/mL). Moreover, the MIC in assay [9] (read-out: MIC C. krusei 2.1857) came out at 2 µM (≈ 5.41 µg/mL). Besides, in [10] (read-out: MFC C. tropicalis 2.1975), the MFC is 2 µM (≈ 5.41 µg/mL). Further, in [10] (read-out: MIC C. tropicalis 2.1975), the MIC was determined as 1 µM (≈ 2.7 µg/mL). In assay [11], this molecule yielded a minimum fungicidal concentration (MFC) of 32 µM (≈ 86.5 µg/mL) and an MIC of 8 µM (≈ 21.6 µg/mL).
